Measured values published in PubChem BioAssay AID588841 (The Scripps Research Institute Molecular Screening Center, 2011).
Calls of active or inactive are those of the source.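 The calls were made as follows: active = EC50 at or below 10 µM; inactive = the rest.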

Each molecule was assayed against cAMP-dependent protein kinase type II-beta regulatory subunit (Homo sapiens) + cAMP-dependent protein kinase catalytic subunit beta (Mus musculus) (UniProt P31323+P68181) (assay: PKA-R2B holoenzyme activators, late-stage follow-up, biochemical, fluorescence polarization, powder samples (AID 588841)). Conditions: PKA-R2B holoenzyme dissociation, Cy5-IP20 fluorescence polarization.

EC50, inactive:
O=C(O)c1sccc1SCc1ccc(Cl)c(Cl)c1 > 100 µM, Cc1csc(C(=O)O)c1NC(=O)c1ccc(F)cc1 > 100 µM, O=C(O)c1sc2ncccc2c1OCc1ccccc1 > 100 µM, COC(=O)c1sc2ncccc2c1OCc1ccc(Cl)cc1Cl > 100 µM, COC(=O)c1sc2ncccc2c1OCc1ccccc1Cl > 100 µM, CC(C)(C)c1ccc(COc2ccsc2C(=O)O)cc1 > 100 µM, Cc1ccc(COc2ccsc2C(=O)O)cc1 > 100 µM, O=C(O)c1sccc1NC(=O)c1c(Cl)cccc1Cl > 100 µM, O=C(O)c1sccc1SCc1ccc(Cl)cc1Cl > 100 µM
